Measured values published in US9512086B2, “Compound for promoting apoptosis of cancer cells and a pharmaceutical composition containing the same and uses thereof” (National Chiao Tung University, priority 2014, dated 2016).
Entries after “also recorded” stand apart in the source; their conditions may differ.

Assays:
[1] = tested on: A549 cell line; assay: MTT cell viability, A549 cell line; assay type: cell-based, human
Experimental: The above cell lines were plated in 96-well plates at a density of 1×10^4 cells/well for 16 to 20 hours. […] After drug treatment, the cell lines were washed with phosphate-buffered saline (hereinafter referred to PBS), and were replaced with fresh complete RPMI-1640 medium for 2 days. Thereafter, the medium was replaced and the cells were incubated with 0.5 mg/ml of 3-(4,5-dimethylthiazol-2-yl)-2,5-diphenyltetrazolium bromide reagent (hereinafter referred to MTT, Sigma Chemical Co., St. Louis, Mo.) in complete RPMI-1640 medium for 4 hours. The viable cells converted MTT to formazan that generates a blue-purple color when dissolved in dimethyl sulfoxide (hereinafter referred to DMSO). The intensity of formazan was measured at 565 nm using a plate reader (VERSAmax, Molecular Dynamics, Sunnyvale, Calif.). The relative percentage of cell viability was calculated by dividing the absorbance of treated cells by that of the control in each experiment.
(§1) After drug treatment, the cells were washed with PBS and replaced with fresh complete RPMI-1640 medium for 2 days. Thereafter, the medium was replaced and the cells were incubated with 0.5 mg/mL of MTT reagent (Sigma Chemical Co., St. Louis, Mo.) in complete RPMI-1640 medium for 4 hours. The intensity of formazan was measured at 565 nm using a plate reader (VERSAmax, Molecular Dynamics, Sunnyvale, Calif.). The relative percentage of cell viability was calculated by dividing the absorbance of treated cells by that of the control in each experiment.

[2] = tested on: H1299 human non-small cell lung cell line; assay: MTT cell viability, H1299 cells; assay type: cell-based; conditions: 24 hours
Experimental: as §1

[3] = tested on: CL3 human lung cancer cell line; assay: MTT cell viability, CL3 cells; assay type: cell-based; conditions: 24 hours
Experimental: as §1

[4] = MTT cell viability, HFL1 normal lung fibroblasts; assay type: cell-based; conditions: human, HFL1 normal lung fibroblast cells, 0 to 40 μM
Experimental: as §1

[5] = target: T1, CHEK1 (checkpoint kinase-1) (Homo sapiens, UniProt O14757); assay: KinaseProfiler assay, CHEK1; assay type: biochemical; conditions: read-out: KAR value (kinase activity remaining)
T1 construct: purchased Merck Millipore (KinaseProfiler service)
T1 sequence (O14757 whole entry): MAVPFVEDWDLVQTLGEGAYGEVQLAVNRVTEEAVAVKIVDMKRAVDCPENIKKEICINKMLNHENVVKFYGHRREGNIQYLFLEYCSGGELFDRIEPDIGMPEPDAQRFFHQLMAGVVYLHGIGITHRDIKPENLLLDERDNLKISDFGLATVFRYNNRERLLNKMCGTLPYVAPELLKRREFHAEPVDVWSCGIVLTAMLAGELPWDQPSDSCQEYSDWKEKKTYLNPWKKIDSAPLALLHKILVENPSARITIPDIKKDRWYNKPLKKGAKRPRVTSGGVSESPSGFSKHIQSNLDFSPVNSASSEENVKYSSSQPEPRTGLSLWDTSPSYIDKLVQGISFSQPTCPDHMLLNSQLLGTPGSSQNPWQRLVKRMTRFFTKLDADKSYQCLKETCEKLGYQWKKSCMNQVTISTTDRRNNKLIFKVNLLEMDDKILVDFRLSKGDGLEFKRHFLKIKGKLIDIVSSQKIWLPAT
Text: The kinase activity remaining (KAR) value is inversely related to kinase activity.

[6] = target: T2, MARK2 (PAR-1Ba) (Homo sapiens, UniProt Q7KZI7); assay: KinaseProfiler assay, MARK2; assay type: biochemical; conditions: MARK2; 10 μM; read-out: KAR value (kinase activity remaining)
T2 construct: purchased Merck Millipore (KinaseProfiler service)
T2 sequence (Q7KZI7 1-725 isoform Q7KZI7-4): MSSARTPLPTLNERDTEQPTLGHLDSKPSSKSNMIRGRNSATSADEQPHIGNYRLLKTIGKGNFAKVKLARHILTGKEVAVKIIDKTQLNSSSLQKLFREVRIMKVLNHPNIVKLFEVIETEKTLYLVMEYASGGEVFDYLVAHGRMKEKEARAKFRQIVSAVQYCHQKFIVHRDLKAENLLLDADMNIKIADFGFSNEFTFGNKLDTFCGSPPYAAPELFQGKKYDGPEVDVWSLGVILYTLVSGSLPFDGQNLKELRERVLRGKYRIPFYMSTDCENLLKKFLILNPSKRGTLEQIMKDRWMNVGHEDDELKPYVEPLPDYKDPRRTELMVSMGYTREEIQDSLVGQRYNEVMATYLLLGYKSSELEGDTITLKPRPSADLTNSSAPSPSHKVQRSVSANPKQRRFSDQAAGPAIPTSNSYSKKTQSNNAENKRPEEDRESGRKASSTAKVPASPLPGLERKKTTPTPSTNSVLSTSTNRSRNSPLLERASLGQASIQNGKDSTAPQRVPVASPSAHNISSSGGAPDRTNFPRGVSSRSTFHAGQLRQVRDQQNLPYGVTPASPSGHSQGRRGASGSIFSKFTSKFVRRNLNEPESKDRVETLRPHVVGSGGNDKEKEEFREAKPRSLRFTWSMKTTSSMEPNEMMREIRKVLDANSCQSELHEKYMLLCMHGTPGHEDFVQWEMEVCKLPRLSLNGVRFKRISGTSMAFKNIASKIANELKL
Text: (§2) The kinase activity remaining (KAR) value is […] related to kinase activity. […]

[7] = target: T3, MKNK2 (MAPK-interacting kinase-2) (Homo sapiens, UniProt Q9HBH9); assay: KinaseProfiler assay, MKNK2; assay type: biochemical; conditions: read-out: KAR value (kinase activity remaining)
T3 construct: purchased Merck Millipore (KinaseProfiler service)
T3 sequence (Q9HBH9 whole entry): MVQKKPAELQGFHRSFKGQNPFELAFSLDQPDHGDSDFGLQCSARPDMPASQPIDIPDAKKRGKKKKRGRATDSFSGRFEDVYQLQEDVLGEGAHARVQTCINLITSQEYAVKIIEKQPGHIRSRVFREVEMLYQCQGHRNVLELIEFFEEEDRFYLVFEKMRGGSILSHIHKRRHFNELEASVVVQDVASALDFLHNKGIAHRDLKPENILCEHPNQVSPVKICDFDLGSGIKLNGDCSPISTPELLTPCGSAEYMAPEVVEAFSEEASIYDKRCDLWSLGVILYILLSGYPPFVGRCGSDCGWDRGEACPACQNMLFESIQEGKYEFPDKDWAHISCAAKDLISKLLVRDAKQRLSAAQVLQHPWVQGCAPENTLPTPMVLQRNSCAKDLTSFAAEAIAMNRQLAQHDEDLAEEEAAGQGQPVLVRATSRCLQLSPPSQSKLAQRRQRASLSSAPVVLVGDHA
Text: as §2

[8] = target: T4, MAPK14 (stress-activated protein kinase-2a) (Homo sapiens, UniProt Q16539); assay: KinaseProfiler assay, MAPK14; assay type: biochemical; conditions: MAPK14; 10 μM; read-out: KAR value (kinase activity remaining)
T4 construct: purchased Merck Millipore (KinaseProfiler service)
T4 sequence (Q16539 whole entry): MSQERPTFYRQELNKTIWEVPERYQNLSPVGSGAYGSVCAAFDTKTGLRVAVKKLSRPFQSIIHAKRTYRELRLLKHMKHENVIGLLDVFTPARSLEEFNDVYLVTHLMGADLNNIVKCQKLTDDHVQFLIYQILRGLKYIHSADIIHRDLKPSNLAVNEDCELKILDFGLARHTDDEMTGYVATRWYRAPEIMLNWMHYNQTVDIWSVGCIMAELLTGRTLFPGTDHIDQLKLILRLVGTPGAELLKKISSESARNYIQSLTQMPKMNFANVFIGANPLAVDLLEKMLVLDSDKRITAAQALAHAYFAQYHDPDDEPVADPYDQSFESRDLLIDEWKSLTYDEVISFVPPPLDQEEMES
Text: as §2

[9] = target: T5, SYK (splenic tyrosine kinase) (Homo sapiens, UniProt P43405); assay: KinaseProfiler assay, SYK; assay type: biochemical; conditions: SYK; 10 μM; read-out: KAR value (kinase activity remaining)
T5 construct: purchased Merck Millipore (KinaseProfiler service)
Text: as §2

[10] = target: T6, LIMK1 (LIM motif-containing protein kinase-1) (Homo sapiens, UniProt P53667); assay: KinaseProfiler assay, LIMK1; assay type: biochemical; conditions: LIMK1; 10 μM; read-out: KAR value (kinase activity remaining)
T6 construct: purchased Merck Millipore (KinaseProfiler service)
T6 sequence (P53667 whole entry): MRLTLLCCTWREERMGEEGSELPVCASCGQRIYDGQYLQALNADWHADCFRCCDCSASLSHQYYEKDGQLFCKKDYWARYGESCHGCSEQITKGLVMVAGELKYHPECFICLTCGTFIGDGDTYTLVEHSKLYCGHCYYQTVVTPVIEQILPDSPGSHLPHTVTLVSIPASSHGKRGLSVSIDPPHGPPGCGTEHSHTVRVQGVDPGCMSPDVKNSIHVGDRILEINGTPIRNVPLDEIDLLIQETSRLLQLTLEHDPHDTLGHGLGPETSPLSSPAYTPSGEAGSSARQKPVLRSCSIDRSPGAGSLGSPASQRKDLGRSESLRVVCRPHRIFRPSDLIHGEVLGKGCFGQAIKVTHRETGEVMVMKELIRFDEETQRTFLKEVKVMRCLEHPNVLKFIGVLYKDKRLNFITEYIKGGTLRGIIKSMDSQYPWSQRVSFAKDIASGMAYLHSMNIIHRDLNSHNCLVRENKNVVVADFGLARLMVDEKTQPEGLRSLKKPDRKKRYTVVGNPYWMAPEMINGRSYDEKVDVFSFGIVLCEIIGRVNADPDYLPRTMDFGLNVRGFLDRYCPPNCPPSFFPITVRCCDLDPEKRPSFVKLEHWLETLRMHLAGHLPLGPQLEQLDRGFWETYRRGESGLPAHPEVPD
Text: as §2

[11] = tested on: A549 cells; assay: Annexin V-PI apoptosis analysis by flow cytometry; assay type: cell-based, human; conditions: 10-40 μM for 24 hours
Experimental: The Annexin V-PI staining kit (BioVision, Mountain View, Calif.) was used to exam the cells by incubating with fluorescent isothiocyanate (FITC)-conjugated-Annexin V and PI according to the manufacturer's instruction. […] The cells were cultured in 60-mm Petri dish at a density of 7×10^5 cells for 16 to 20 hours. […] The cells were trypsinized and collected by centrifugation at 1500 rpm for 5 minutes. Thereafter, the cells were incubated with 500 μl Annexin V-PI labeling solution (containing 5 μl Annexin V-FITC and 5 μl PI in PBS) at room temperature in the dark for 5 minutes. To avoid cell aggregation, the cell solutions were filtered through a nylon mesh membrane (Becton-Dickinson, San Jose, Calif.). Finally, the samples were analyzed immediately using flow cytometer (FACS Calibur, BD Biosciences, Heidelberg, Germany). The percentage of Annexin V-PI staining cells was quantified from a minimum of 10,000 cells by CellQuest software (BD Biosciences).

[12] = tested on: A549 cells; assay: Cell growth, cell number by hemocytometer; assay type: cell-based, human; conditions: 30 μM for 24 hours, then cultured 2-6 days
Experimental: The cells were washed with PBS after the treatment. […] The cell number was calculated with hemocytometer.

[13] = tested on: A549 cells; assay: Cell cycle analysis, PI staining and flow cytometry; assay type: cell-based, human; conditions: 24 hours
Experimental: After the treatment, the cells were collected and fixed with ice-cold 70% ethanol overnight at −20° C. After centrifugation at 1500 rpm for 5 minutes, the pellets were treated with 4 μg/ml PI solution containing 1% Triton X-100 and 50 μg/ml RNase at 37 °C for 30 minutes in the dark. To avoid cell aggregation, the cell solutions were filtrated through nylon membrane (Becton-Dickinson, San Jose, Calif.). Subsequently, the samples were analyzed by flow cytometry. For each measurement, 10,000 cells were analyzed for DNA content. The percentage of cell cycle phases was quantified by ModFit LT software (Ver. 2.0, Becton-Dickinson).

[14] = tested on: survivin; assay: RT-PCR of survivin gene expression in A549 cells; assay type: cell-based, human; conditions: 0 to 40 μM, 24 hours
Experimental: After the treatment, total cellular RNA was purified by ZR RNA MiniPrep™ (Zymo Research, Irvine, Calif.) according to the manufacturer's protocol. RNA concentrations were determined by spectrophotometry. cDNAs were synthesized by SuperScript™ III reverse transcriptase with oligo (dT)12-18 primer (Invitrogen). Each reverse transcript was amplified with GAPDH as an internal control. Reverse transcription polymerase chain reaction (RT-PCR) was performed by a DNA thermal cycler (Mastercycler gradient, Hamburg, Germany). […] The conditions of RT-PCR are stated as followed: the initial denaturation was performed at 94° C. for 2 minutes, followed by 30 cycles at 94° C. for 30 seconds, 56° C. for 30 seconds, and 72° C. for 40 seconds; and 72° C. for 5 minutes. The PCR products were visualized on 1.2% agarose gels with ethidium bromide staining under UV transillumination, and photograph was taken by a camera DH27-S3 (Medclub, Taoyuan, Taiwan).

[15] = tested on: A549 human lung xenograft tumors; assay: Tumor growth of xenograft human lung tumors in nude mice; assay type: in vivo; conditions: 30 mg/kg three times every 4 days, day 16; control groups 406.52 mm^3
Text: (§3) The present invention determines the effect of Analogue-18 on tumor growth of the xenograft human lung tumors in nude mice. BALB/cAnN.Cg-FoxnInu/CrlNarl mice (3-week-old male) were obtained from BioLASCO (BioLASCO Co., Ltd., Taipei, Taiwan). After 2 weeks for environmental adaption, the mice were used for human lung cancer cell inoculation. Solid A549 flank tumors were established by subcutaneous injection of 2×10^6 cells. After 10 days, the mice bearing A549 human lung xenograft tumors were injected with 100 μl corn oil (control) or 30 mg/kg Analogue-18 for three times every 4 days. The tumor size of the mice was measured by a digital caliper every 4 days and calculated by the following formula: (length)×(width)^2×0.5. The xenograft tumors were harvested from scarified mice. The tumors were homogenized and the total lysate were subjected to Western blot analysis according to Example 4.

[16] = tested on: survivin; assay: Western blot of survivin protein in xenograft tumors; assay type: in vivo, nude mice; conditions: 30 mg/kg three times every 4 days
Text: as §3

[17] = tested on: PARP; assay: Western blot of cleaved PARP in A549 cells; conditions: 10-40 μM, 24 hours
Experimental: (§4) The protease inhibitors including 1 μg/ml aprotinin, 0.5 μg/ml leupeptin, and 100 μg/ml 4-(2-aminoethyl)benzenesulfonyl fluoride were added to the cell suspensions. The lysates were vibrated for 30 minutes at 4° C. and centrifuged at 10,000 rpm for 10 minutes. The protein concentrations were determined by the BCA protein assay kit (Pierce, Rockford, Ill.). […] The membranes were blocked overnight at 4° C. using blocking buffer (5% non-fat dried milk in solution containing 50 mM Tris/HCl (pH 8.0), 2 mM CaCl2, 80 mM NaCl, 0.05% Tween 20 and 0.02% sodium azide). The membranes were sequentially hybridized with primary antibody and followed with a horseradish peroxidase-conjugated secondary antibody. The protein bands were visualized on the X-ray film using the enhanced chemiluminescence detection system (PerkinElmer Life and Analytical Sciences, Boston, Mass.). […] To verify equal protein loading and transfer, actin was used as the protein loading control. The gel digitizing software, Un-Scan-It gel (Ver. 5.1, Silk Scientific, Inc., Orem, Utah), was used to analyze the intensity of protein bands on X-ray film.
(§5) A549 cells were plated at a density of 1×10^6 cells per 60-mm Petri dish in complete medium for 16 to 20 hours. […] To verify equal protein loading and transfer, actin was used as the protein loading control.

[18] = tested on: caspase 3; assay: Western blot of active caspase 3 in A549 cells; conditions: 10-40 μM, 24 hours
Experimental: as §4, §5

With `CCCCCCCCCCCCOC(=O)CCC(=O)N1CCN(CCCOc2cc3c(Nc4ccc(F)c(Cl)c4)ncnc3cc2OC)CC1` [Analogue-18, dodecyl 4-(4-(3-(4-(3-chloro-4-fluorophenylamino)-7-methoxyquinazolin-6-yloxy)propyl)piperazin-1-yl)-4-oxobutanoate] as the compound, how does the “toxicity effect on A549 cell line” value ([1]; 24 hours, in comparison with Iressa) read?
The value was “best toxicity effect; also recorded: more effective on reducing cell viability than Iressa”.

What about the toxicity effects ([1]; A549, 40 μM, 24 hours) of the same compound?
The toxicity effects was “more than 99%”.

And the increased toxicity effect ([1]; A549 cell line, 40 μM)?
The increased toxicity effect was 15-20 times.

What about the viability at 10 µM ([1]; Homo sapiens, A549 cell line, 10 μM, 24 hours, MTT) of the same compound?
The viability at 10 µM was 95.5%.

What about the viability at 20 µM ([1]; Homo sapiens, A549 cell line, 20 μM, 24 hours, MTT) of the same compound?
Its viability at 20 µM is 86.8%.

What about the viability at 40 µM ([1]; Homo sapiens, A549 cell line, 40 μM, 24 hours, MTT) of the same compound?
The viability at 40 µM was 5.7%.

And the viability at 60 µM ([1]; Homo sapiens, A549 cell line, 60 μM, 24 hours, MTT)?
The viability at 60 µM was 2%.

And the viability at 80 µM ([1]; Homo sapiens, A549 cell line, 80 μM, 24 hours, MTT)?
Its viability at 80 µM is 2.3%.

And the reducing cell viability ([2]; H1299, 0 to 40 μM, compared with Iressa)?
The reducing cell viability was “more effective on reducing cell viability than Iressa”.

What about the toxicity effects ([2]; H1299, 40 μM) of the same compound?
Its toxicity effects is “more than 99%”.

What about the reducing cell viability ([3]; CL3, 0 to 40 μM, compared with Iressa) of the same compound?
Its reducing cell viability is “more effective on reducing cell viability than Iressa”.

What about the toxicity effects ([3]; CL3, 40 μM) of the same compound?
Its toxicity effects is “more than 99%”.

And the viability at 24 h [4]?
Its viability at 24 h is greater than 30%.

And the remaining activity at 10 µM [5]?
Its remaining activity at 10 µM is 69%.

And the remaining activity at 10 µM [6]?
Its remaining activity at 10 µM is 84%.

And the remaining activity at 10 µM [7]?
Its remaining activity at 10 µM is 85%.

What about the remaining activity at 10 µM [8] of the same compound?
The remaining activity at 10 µM was 87%.

What about the remaining activity at 10 µM [9] of the same compound?
The remaining activity at 10 µM was 87%.

And the remaining activity at 10 µM [10]?
The remaining activity at 10 µM was 82%.

And the “average of total apoptosis” value [11]?
Its value is “around 67.9%”.

What about the “cell growth of A549 cells” value [12] of the same compound?
Its value is “inhibit cell growth of A549 cells, and Analogue-18 is more effective”.

And the “fractions of G1, S and G2/M phases” value ([13]; 0 to 40 μM)?
Its value is “does not significantly alter”.

What about the “average percentage of sub-G1 fractions” value ([13]; 40 μM) of the same compound?
Its value is 66.7%.

What about the survivin gene expression [14] of the same compound?
The survivin gene expression was “significantly inhibited in a concentration-dependent manner”.

And the average tumor size [15]?
Its average tumor size is 118.19 mm^3.

And the “survivin protein levels of xenograft tumors” value [16]?
The value was “significantly reduced about half amount”.

What about the “cleaved form of PARP” value [17] of the same compound?
Its value is “induced the cleaved form of PARP”.

And the “active form of caspase 3” value [18]?
The value was “significantly induced”.
